{
  "source": "patent US8119170B2",
  "about": "“Herbal compositions and methods for enhancing vital energy and athletic performance” (priority 2008, dated 2012)",
  "key": {"L6 rat skeletal cells [1]": {"tested_on": "L6 rat skeletal cells", "assay": "MTT assay, viability of L6 cells under hypoxic conditions", "format": "cell-based", "settings": "80 μg/ml, 12 h pretreatment, 1 h hypoxia; vehicle 27% ± 1.3%; means ± SD", "procedure": "L6 cells were cultured in 96-well tissue culture plates (1×10^4 cell/well) with 10% FBS for 24 hours. Serum-free medium was then used for another 24 hours prior to treatment with RGC, Rhodiola crenulata extract, or Ginkgo biloba extract. Cell viability and proliferation were measured by the 3-(4,5-dimethylthiazol-2-yl)-2,5-diphenyltetrazolium bromide (MTT) and 5-bromo-2′-deoxyuridine (BrdU) (Roche Diagnostics, USA) incorporation assays, respectively.\nThe L6 cells were plated in 96-well plates (5000 cell/well) for 24 hours. Then the serum-free medium was used and cells incubated for another 12 hours. Sequentially, cells were pretreated with various concentrations (20 μg/ml, 40 μg/ml, 80 μg/ml) of RG, Rhodiola Crenulata, or Ginkgo biloba, respectively, or Vitamin C (80 μg/ml) for 12 hours, followed by exposure to an ischemic solution (EBSS) and placed in an anaerobic chamber (Diagnostic System) for 1 hour. The control cells were incubated without treatment for 1 hour. After 1 hour exposure to hypoxic and ischemic environments, 100 μl MTT (0.5 mg/ml in PBS) was added to each well and the cells were incubated at 37° C. for 4 h. The MTT solution was prepared by dissolving 250 mg of MTT in 50 ml PBS (0.01 mol/L, PH7.4) to prepare 0.5% MTT staining solution. The solution was then filtered through Millipore membrane and stored at 4° C. […]"}, "L6 rat skeletal cells [2]": {"tested_on": "L6 rat skeletal cells", "assay": "SOD antioxidant assay, SOD activity of L6 cells under hypoxic conditions", "format": "cell-based", "settings": "80 μg/ml, hypoxic condition; vehicle 16.58% ± 0.31%; means ± SD", "procedure": "Cells were homogenized in ice-cold phosphate buffer (50 mmol/L, pH 7.4) to make 10% w/v homogenate with a motor-driven Potter-Elvejhem glass homogenizer at 0-4° C. The homogenate will be then centrifuged at 300 g for 10 min at 4° C. to remove intact cells and debris. The remaining supernatant was divided into 2 parts for different enzyme assays. For SOD assays, the supernatant will be centrifuged at 2300 g for a further 10 min at 4° C. After centrifugation, the pellets will be discarded and the supernatants were used for the assessment of enzyme activity. The procedure was carried out on ice or at 0-4° C. Reagents for the assay were obtained through a commercially available SOD Assay Kit.\nThe samples were mixed and placed in a water bath at 37° C. for 40 min. A chromogenic agent (200 μl) was then added, the samples mixed, then left at room temperature for 10 min before absorbance at 550 nm was detected. The Inhibition ration was then calculated using the formula: Inhibition ratio=(ODn−OD1)/OD1×100%. […] The protein concentration was measured using the BCA protein quantitative assay.\nAfter 10 μl was selected for use for the SOD assays, SOD activity assays were performed for the samples of the various treatment groups (20 μg/ml, 40 μg/ml, or 80 μg/ml of RG, Rhodiola Crenulata, or Ginkgo biloba, respectively, and 80 μg/ml of Vitamin C) where the sample volumes were as shown in Table 10. […]"}},
  "data": [
    {"smiles": "O=C1O[C@H]([C@@H](O)CO)C(O)=C1O", "note": "[Vitamin C]", "values": [
      {"measurement": "Cell proliferation in hypoxic conditions (cell survival rate, MTT)", "setting": "L6 rat skeletal cells [1]", "result": "41% ± 3.2%"},
      {"measurement": "SOD Enzymatic Activity", "setting": "L6 rat skeletal cells [2]", "result": "20.00% ± 0.08%"}
    ]}
  ]
}
